Measurements from US8410085B2, “Phospholipid compositions and uses thereof” (Baylor College of Medicine, priority 2007, dated 2013).

Experiments:
[1] = system: hepatic expression of Cyp7A1, Cyp8B1, mSR-BI, SHP; experiment: hepatic gene expression (Q-PCR) in wild type mice after oral gavage; format: in vivo, mouse; details: 100 mg/kg oral, five times over three days
Text: (§1) Total liver RNA was isolated and prepared for the cDNA. […] Total liver RNA was isolated and prepared for cDNA.

[2] = system: db/db mice; experiment: glucose tolerance and insulin tolerance tests in db/db mice; format: in vivo, mouse; details: for glucose tolerance test (GTT): oral gavage 2 weeks
Method: Glucose tolerance (GTT: 1.5 g/kg i.p.) was assessed in fasted mice. One week later, insulin tolerance (ITT: 2 U/kg i.p) was assessed in fed mice. In the ITT, glucose levels after insulin injection are presented as the percentage of initial glucose concentrations.
After 1 week of additional treatment, the same mice were given an insulin tolerance test (ITT) and sacrificed.

[3] = system: hepatic gene expression; experiment: hepatic mRNA levels in db/db mice
[4] = system: LRH-1 target Cyp8B1; experiment: hCYP8B1 expression by Q-PCR in C3A HepG2 cells; details: for expression of Cyp8B1: C3A/HepG2 cells or cells with non-target control siRNAs
[5] = biological target: T1, LRH-1 (Homo sapiens, UniProt O00482); experiment: LRH-1 Luc reporter in C3A HepG2 cells (endogenous hLRH-1); details: C3A/HepG2 cells or cells with non-target control siRNAs
[6] = system: db/db mice; experiment: body and organ weights, serum and hepatic parameters in db/db mice
[7] = biological target: T1, LRH-1; experiment: Oct4 proximal promoter (Oct4-PP Luc) activation by hLRH-1 in COS-1 cells; details: COS-1 cells, Oct4-PP Luc
[8] = biological target: hLRH-1 LBD / SRC-3 receptor interaction domain (Homo sapiens, UniProt O00482); experiment: mammalian two-hybrid assay, VP16-hLRH1 LBD with Gal4-SRC3 RID in HeLa cells
[9] = biological target: T1, LRH-1; experiment: human LRH-1 transactivation, HeLa cotransfection with LRH-1/SF-1 response element luciferase reporter; format: cell-based; parameters: expressed in transfected cells; host or cells: HeLa (A1, A3); details: HeLa cells, 100 μM
Method: Controls (vector only and no lipid) are as indicated. […] Cells were treated with 100 μM of the indicated PCs and luciferase expression (RLU, relative light units) was normalized using an internal β-galactosidase control. vec, empty vector; −, ethanol solvent control.
HeLa cells were transfected with an hLRH-1 expression vector along with mSHP1080-Luc reporter. […] Oct4-PPmut Luc is identical to Oct4-PP Luc except for the insertion of point mutations in the DR0 element. […] HeLa cells were cotransfected with various nuclear receptors and the reporter plasmid (RE-tk-luc). […] Data are expressed for each reporter as fold activation of normalized luciferase activity relative to veh-treated cells.
A number of different phosphatidylcholine (PC) species were screened for effects on human LRH-1 transactivation in HeLa cell cotransfections with a synthetic luciferase reporter containing multiple copies of an LRH-1/SF-1 response element.

[10] = system: wild type male mice; experiment: bile acids, serum glucose and NEFA in wild type mice after oral gavage; format: in vivo, mouse; details: 100 mg/kg oral
[11] = system: LRH-1; experiment: hepatic gene expression in LRH-1 f/f mice infected with Ad-Cre; format: in vivo, mouse; details: 100 mg/kg oral
Text: as §1

[12] = biological target: TRβ (Homo sapiens, UniProt P10828); experiment: nuclear receptor cotransfection (RE-tk-luc), HeLa cells; details: 100 μM
[13] = biological target: RARβ (Homo sapiens, UniProt P10826); experiment: as above; details: 100 μM
[14] = biological target: RXRα (Homo sapiens, UniProt P19793); experiment: as above; details: 100 μM
[15] = biological target: PPARα (Homo sapiens, UniProt Q07869); experiment: as above; details: 100 μM
[16] = biological target: PPARδ (Homo sapiens, UniProt Q03181); experiment: as above; details: 100 μM
[17] = biological target: PPARγ (Homo sapiens, UniProt P37231); experiment: as above; details: 100 μM
[18] = biological target: FXR (Homo sapiens, UniProt Q96RI1); experiment: as above; details: 100 μM
[19] = biological target: LXRα (Homo sapiens, UniProt Q13133); experiment: as above; details: 100 μM
[20] = biological target: ERα (Homo sapiens, UniProt P03372); experiment: as above; details: 100 μM
[21] = biological target: mouse CAR (Mus musculus, UniProt O35627); experiment: as above; details: 100 μM
[22] = biological target: human CAR (Homo sapiens, UniProt Q14994); experiment: as above; details: 100 μM
[23] = biological target: human PXR (Homo sapiens, UniProt O75469); experiment: as above; details: 100 μM
[24] = biological target: T2, SF-1 (Homo sapiens, UniProt Q13285); experiment: SF-1 transactivation, reporter cotransfection in HeLa cells
[25] = biological target: T2, SF-1; parameters: expressed in transfected cells; host or cells: HeLa; details: in vitro, Li et al. Mol Cell Biol 2007; read-out: affinity of SF-1; cited from earlier work

T2 sequence (Q13285 whole entry): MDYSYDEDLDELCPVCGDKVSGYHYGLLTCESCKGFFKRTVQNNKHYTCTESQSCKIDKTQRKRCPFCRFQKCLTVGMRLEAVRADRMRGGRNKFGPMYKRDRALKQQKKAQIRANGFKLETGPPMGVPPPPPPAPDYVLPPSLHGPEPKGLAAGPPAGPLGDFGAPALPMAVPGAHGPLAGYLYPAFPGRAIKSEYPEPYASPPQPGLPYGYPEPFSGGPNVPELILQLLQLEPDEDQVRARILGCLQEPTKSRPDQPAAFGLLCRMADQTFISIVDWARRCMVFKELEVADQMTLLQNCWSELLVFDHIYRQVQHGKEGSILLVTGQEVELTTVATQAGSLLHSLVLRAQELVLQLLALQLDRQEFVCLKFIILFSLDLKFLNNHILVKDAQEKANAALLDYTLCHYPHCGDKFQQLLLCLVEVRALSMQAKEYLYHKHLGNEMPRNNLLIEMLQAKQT
T1 sequence (O00482 whole entry): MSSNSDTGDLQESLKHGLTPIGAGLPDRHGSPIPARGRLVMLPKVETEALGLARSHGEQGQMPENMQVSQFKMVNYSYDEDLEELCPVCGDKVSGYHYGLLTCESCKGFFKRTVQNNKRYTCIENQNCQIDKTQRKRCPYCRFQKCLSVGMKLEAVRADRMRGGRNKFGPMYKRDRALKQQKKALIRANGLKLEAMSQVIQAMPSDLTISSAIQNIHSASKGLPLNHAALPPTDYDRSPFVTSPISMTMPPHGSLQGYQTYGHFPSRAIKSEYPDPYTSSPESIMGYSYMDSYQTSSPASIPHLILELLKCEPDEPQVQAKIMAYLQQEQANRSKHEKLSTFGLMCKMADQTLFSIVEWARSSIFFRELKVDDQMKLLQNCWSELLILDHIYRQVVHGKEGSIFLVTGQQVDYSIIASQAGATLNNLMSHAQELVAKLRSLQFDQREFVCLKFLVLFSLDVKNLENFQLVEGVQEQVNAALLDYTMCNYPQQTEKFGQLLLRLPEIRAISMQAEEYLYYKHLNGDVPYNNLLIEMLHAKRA
Sequence of hLRH-1 LBD / SRC-3 receptor interaction domain (O00482 300-539 limits assumed): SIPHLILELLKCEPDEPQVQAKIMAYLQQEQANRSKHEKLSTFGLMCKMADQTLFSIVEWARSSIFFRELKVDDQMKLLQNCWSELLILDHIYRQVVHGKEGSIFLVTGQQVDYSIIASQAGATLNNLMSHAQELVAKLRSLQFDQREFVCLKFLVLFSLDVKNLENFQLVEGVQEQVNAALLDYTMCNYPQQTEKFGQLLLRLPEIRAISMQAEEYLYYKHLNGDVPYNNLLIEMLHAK
Sequence of hLRH-1 LBD / SRC-3 receptor interaction domain (Q9Y6Q9 whole entry partner, the tested form may be a part): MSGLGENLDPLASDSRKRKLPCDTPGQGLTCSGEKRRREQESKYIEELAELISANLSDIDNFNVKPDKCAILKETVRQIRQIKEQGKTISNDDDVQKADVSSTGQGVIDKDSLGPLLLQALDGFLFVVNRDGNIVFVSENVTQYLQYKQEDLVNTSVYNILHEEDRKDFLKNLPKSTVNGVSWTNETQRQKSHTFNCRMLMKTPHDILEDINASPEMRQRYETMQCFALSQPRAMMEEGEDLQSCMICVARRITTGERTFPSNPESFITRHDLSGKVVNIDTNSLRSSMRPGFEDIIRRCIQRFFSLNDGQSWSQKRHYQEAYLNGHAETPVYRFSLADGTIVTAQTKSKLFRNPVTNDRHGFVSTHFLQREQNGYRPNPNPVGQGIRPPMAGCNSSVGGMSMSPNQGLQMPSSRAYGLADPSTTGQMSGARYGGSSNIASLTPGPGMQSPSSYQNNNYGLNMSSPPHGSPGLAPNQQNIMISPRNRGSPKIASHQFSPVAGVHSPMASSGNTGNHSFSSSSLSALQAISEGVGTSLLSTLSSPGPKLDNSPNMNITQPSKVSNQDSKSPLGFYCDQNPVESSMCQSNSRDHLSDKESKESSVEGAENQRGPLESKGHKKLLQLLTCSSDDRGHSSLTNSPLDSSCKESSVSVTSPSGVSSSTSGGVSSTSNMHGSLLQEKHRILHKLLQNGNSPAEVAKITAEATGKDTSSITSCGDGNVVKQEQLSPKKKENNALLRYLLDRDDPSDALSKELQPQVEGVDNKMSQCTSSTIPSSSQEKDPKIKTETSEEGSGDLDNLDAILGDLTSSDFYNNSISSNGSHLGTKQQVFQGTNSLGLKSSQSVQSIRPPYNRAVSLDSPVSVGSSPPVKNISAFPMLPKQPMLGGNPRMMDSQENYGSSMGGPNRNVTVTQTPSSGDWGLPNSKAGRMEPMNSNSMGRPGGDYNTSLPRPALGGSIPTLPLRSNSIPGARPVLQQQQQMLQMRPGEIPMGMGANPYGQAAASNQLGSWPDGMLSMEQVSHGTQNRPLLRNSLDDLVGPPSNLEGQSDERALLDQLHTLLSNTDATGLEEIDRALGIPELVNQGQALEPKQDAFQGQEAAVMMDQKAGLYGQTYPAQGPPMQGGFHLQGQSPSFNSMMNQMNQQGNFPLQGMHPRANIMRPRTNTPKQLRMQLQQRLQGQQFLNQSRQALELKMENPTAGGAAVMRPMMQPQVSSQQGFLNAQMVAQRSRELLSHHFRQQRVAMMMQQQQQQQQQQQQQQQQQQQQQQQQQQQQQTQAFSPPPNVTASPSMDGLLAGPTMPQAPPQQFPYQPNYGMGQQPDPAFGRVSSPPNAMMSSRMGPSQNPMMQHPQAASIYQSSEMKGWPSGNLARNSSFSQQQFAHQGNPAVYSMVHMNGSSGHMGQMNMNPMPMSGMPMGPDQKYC
Sequence of FXR (Q96RI1 whole entry, species assumed): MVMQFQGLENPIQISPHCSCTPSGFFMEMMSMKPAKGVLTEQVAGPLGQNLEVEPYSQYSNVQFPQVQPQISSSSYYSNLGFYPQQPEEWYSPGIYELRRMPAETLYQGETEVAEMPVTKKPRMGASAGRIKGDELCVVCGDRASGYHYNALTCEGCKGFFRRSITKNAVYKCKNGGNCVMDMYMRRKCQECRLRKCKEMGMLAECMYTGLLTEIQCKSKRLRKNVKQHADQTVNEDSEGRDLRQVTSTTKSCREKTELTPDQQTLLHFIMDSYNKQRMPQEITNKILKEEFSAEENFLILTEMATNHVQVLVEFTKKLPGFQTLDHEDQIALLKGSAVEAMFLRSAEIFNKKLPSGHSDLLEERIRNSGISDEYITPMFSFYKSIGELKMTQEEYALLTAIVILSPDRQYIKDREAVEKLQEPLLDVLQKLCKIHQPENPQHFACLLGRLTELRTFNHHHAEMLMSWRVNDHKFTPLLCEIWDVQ
Sequence of PPARα (Q07869 whole entry, species assumed): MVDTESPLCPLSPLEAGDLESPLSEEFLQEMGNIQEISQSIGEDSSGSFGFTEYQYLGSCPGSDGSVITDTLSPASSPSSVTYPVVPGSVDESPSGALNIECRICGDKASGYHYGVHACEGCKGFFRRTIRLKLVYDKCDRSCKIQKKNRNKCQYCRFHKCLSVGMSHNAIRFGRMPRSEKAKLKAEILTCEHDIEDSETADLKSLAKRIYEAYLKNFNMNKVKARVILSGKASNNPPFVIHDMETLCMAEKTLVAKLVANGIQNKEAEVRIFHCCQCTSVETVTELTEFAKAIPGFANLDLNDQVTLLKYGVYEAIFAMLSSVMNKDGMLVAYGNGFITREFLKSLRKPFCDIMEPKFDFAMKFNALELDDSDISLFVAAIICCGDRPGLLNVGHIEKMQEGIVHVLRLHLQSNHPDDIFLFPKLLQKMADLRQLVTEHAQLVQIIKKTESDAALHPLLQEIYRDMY
Sequence of PPARδ (Q03181 whole entry, species assumed): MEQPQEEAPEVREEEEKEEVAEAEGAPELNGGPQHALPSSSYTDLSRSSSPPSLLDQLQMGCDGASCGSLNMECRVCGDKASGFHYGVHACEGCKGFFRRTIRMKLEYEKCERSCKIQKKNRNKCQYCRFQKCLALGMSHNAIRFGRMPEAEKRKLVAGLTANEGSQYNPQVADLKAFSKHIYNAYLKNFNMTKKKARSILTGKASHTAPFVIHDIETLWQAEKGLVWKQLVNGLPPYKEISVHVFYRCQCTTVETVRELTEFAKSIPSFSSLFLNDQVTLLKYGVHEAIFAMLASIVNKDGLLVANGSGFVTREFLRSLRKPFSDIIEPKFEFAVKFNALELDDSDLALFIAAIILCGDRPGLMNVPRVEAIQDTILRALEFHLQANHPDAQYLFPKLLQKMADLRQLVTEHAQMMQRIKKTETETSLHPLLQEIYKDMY
Sequence of human CAR (Q14994 whole entry): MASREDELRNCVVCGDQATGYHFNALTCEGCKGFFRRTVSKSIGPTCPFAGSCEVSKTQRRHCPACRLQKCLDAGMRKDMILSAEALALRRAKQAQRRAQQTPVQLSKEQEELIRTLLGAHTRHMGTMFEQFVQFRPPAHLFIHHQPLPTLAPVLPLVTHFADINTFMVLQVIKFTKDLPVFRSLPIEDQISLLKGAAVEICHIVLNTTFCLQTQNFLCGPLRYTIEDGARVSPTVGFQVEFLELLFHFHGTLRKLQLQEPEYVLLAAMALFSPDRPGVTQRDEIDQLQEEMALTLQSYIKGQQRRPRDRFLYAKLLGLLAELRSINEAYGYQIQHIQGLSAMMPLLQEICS
Sequence of RXRα (P19793 whole entry): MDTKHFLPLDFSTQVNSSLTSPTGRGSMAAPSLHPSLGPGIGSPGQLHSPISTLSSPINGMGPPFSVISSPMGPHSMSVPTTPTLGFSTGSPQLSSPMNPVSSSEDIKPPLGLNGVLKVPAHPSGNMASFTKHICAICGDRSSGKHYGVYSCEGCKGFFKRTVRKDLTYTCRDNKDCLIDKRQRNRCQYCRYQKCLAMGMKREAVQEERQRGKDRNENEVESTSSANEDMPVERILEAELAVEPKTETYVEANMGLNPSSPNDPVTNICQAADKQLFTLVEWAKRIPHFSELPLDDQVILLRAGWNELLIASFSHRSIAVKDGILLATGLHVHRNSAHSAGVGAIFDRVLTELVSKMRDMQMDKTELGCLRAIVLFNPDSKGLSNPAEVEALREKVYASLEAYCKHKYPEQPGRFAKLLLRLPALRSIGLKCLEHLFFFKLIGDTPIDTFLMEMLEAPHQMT

CCCCCCCCCCCCCCCC(=O)OC[C@H](COP(=O)([O-])OCC[N+](C)(C)C)OC(=O)CCCCCCCCCCCCCCC [DPPC, dipalmitoyl PC, reference compound]
hepatic expression of Cyp7A1 [1]: without significant effect
hepatic expression of Cyp8B1 [1]: without significant effect
hepatic expression of SHP [1]: without significant effect
hepatic expression of mSR-BI [1]: without significant effect
glucose tolerance test (GTT) [2]: lesser beneficial response
SR-B1 expression ([3]; db/db mice): not significantly affected
hepatic expression of Cyp7A1 ([3]; db/db mice): not
hepatic expression of genes associated with glucose homeostasis (ACC1, glucokinase, hexokinase 1 and 2, PEPCK, glucose-6-phosphatase, pyruvate carboxylase, PGC-1α) ([3]; db/db mice): no effect
SHP expression ([3]; db/db mice, not statistically significant): appeared to be decreased
expression of Cyp8B1 [4]: not
LRH-1 Luc luciferase activity [5]: not
serum bile acid levels [6]: not
total body weight [6]: not altered
weight of liver [6]: not altered
weight of reproductive fat pads [6]: not altered
response with the Oct4 promoter [7]: not
interaction of hLRH-1 LBD with SRC-3 RID [8]: unaffected

CCCCCCCCCCCC(=O)OC[C@H](COP(=O)(O)OCCN)OC(=O)CCCCCCCCCCC [C12:0-12:0 PE]
LRH-1 transactivation (luciferase) [9]: no activation

CCCCCCCCCC(=O)OC[C@H](COP(=O)(O)OCCN)OC(=O)CCCCCCCCC [C10:0-10:0 PE]
LRH-1 transactivation (luciferase) [9]: no activation

C[C@H](CCC(=O)O)[C@H]1CC[C@H]2[C@@H]3[C@H](O)C[C@@H]4C[C@H](O)CC[C@]4(C)[C@H]3C[C@H](O)[C@]12C [CA, cholic acid, reference compound]
hepatic expression of Cyp7A1 [1]: reduced
hepatic expression of Cyp8B1 [1]: reduced
hepatic expression of SHP [1]: induced
hepatic expression of mSR-BI [1]: induced
liver bile acids [10]: did not show statistically significant changes
serum bile acid levels [10]: substantially elevated
serum free fatty acids [10]: decreased levels
serum glucose levels [10]: not
hepatic gene expression response when LRH-1 gene removed by Cre [11]: lost
response with the Oct4 promoter [7]: not

C[C@H](CCC(=O)O)[C@H]1CC[C@H]2[C@@H]3[C@H](O)C[C@@H]4C[C@H](O)CC[C@]4(C)[C@H]3CC[C@]12C [CDCA, chenodeoxycholic acid]
LRH-1 Luc luciferase activity [5]: not
interaction of hLRH-1 LBD with SRC-3 RID [8]: unaffected

CCCCCCCCCCCCCC(=O)OC[C@H](COP(=O)(O)OCCN)OC(=O)CCCCCCCCCCCCC [C14:0-C14:0 PE]
LRH-1 transactivation (luciferase) [9]: no activation

CCCCCCCCCCCC(=O)OCC(COP(=O)([O-])OCC[N+](C)(C)C)OC(=O)CCCCCCCCCCC (stereo not drawn) [DLPC, dilauroylphosphatidylcholine]
hepatic expression of Cyp7A1 [1]: significantly induced
hepatic expression of Cyp8B1 [1]: significantly induced
hepatic expression of SHP [1]: repressed
hepatic expression of mSR-BI [1]: significantly induced
liver bile acids [10]: somewhat lower
serum bile acid levels [10]: substantially elevated
serum free fatty acids [10]: decreased levels
serum glucose levels [10]: decreased serum glucose levels
total bile acid pool [10]: significant increase
glucose tolerance test (GTT) [2]: remarkable improvement
insulin tolerance test (ITT) ([2]; oral gavage 3 weeks): remarkable improvement
SHP expression ([3]; mouse, in vivo): appeared to be decreased
expression of ACC2 ([3]; mouse, in vivo): significantly decreased
expression of FAS ([3]; mouse, in vivo): significantly decreased
expression of SCD-1 ([3]; mouse, in vivo): significantly decreased
expression of SREBP-1c ([3]; mouse, in vivo): significantly decreased
hepatic expression of Cyp7A1 ([3]; mouse, in vivo): increased expression
hepatic expression of Cyp8B1 ([3]; mouse, in vivo): increased expression
hepatic expression of genes associated with glucose homeostasis (ACC1, glucokinase, hexokinase 1 and 2, PEPCK, glucose-6-phosphatase, pyruvate carboxylase, PGC-1α) ([3]; mouse, in vivo): no effect
expression of Cyp8B1 [4]: modestly but significantly induced
Cyp8B1 response when LRH-1 expression is knocked down ([4]; siRNA hLRH-1): lost
activation or inhibition of TRβ [12]: did not activate or inhibit
activation or inhibition of RARβ [13]: did not activate or inhibit
activation or inhibition of RXRα [14]: did not activate or inhibit
activation or inhibition of PPARα [15]: did not activate or inhibit
activation or inhibition of PPARδ [16]: did not activate or inhibit
activation or inhibition of PPARγ [17]: did not activate or inhibit
activation or inhibition of FXR [18]: did not activate or inhibit
activation or inhibition of LXRα [19]: did not activate or inhibit
activation or inhibition of ERα [20]: did not activate or inhibit
activation or inhibition of mouse CAR [21]: did not activate or inhibit
activation or inhibition of human CAR [22]: did not activate or inhibit
activation or inhibition of human PXR [23]: did not activate or inhibit
SF-1 activation ([24]; 100 μM): activate SF-1
hepatic NEFA [6]: more modestly lowered
hepatic cholesterol [6]: increased
hepatic triglycerides (TG) [6]: significantly decreased
serum bile acid levels [6]: significantly increased
serum cholesterol [6]: modestly decreased
serum free fatty acids (NEFA) [6]: modestly decreased
total body weight [6]: not altered
weight of liver [6]: not altered
weight of reproductive fat pads [6]: not altered

CCCCCCCCCCCCCC(=O)OC[C@H](COP(=O)(O)O)OC(=O)CCCCCCCCCCCCC [C14:0-C14:0 PA]
Kd [25]: ~100 nM
LRH-1 transactivation (luciferase) [9]: no effect
increase of SF-1 transactivation [24]: 1.2-1.4 fold
